The record followed here is paper PMC12120022, “Discovery and chemical optimisation of a potent, Bi-cyclic antimicrobial inhibitor of Escherichia coli PBP3” (Communications Biology, 2025).

Structures are written as SMILES. Where a SMILES comes first, the peptide text is derived from it.

Data set [1] deals with T1, EcPBP3 (Escherichia coli, UniProt P0AD68).
T1 construct: For assays, selections and SPR a construct with residues 60–588 which has the N-terminal domain, but not the transmembrane helix, was used; made in house
The data set can be described thus: Fluorescence polarisation competition assay with BOCILLIN-FL as tracer. Format: binding. The note with it: competition format, NB, non-binder (100 μM top concentration); for IC50: read-out: IC50 (nM) by fluorescence polarisation with Bocillin FL as tracer, Geometric mean (Lower 95% CI of geo. Mean; Upper 95% CI of geo. Mean, n=number of values). The method, then: Binding of output peptides to EcPBP3 was evaluated using a fluorescence polarisation (FP) assay.
[…] 10 µL of protein (9.4 nM) was mixed with either 5 µL of peptide or 5 µL of buffer and then the assay was initiated by the addition of 10 µL of tracer (1 nM) (final volume 25 µL), in a black 384 low bind, low volume plate (Corning). The buffer was 10 mM HEPES (Sigma), 2% (v/v) glycerol (Sigma), 300 mM NaCl (Sigma), adjusted to pH 8. The plate was incubated for 1 h at 25 °C and then read in a PHERAstar FS (BMG) using with an “FP 485 520 520” optic module (excitation 485 nm, emission 520 nm). The gain was determined immediately prior to the read on a tracer-only well.
Dotmatics (Dotmatics) workflows performing the above calculations were used to process the data. Values quoted are the geometric means of at least 2 repeats.

The target of data set [2] is T1, EcPBP3. The data set is described as follows: SPR binding assay on immobilised EcPBP3. Conditions: 37 °C, kinetic fitting; NB = no binding at 2500 nM (Tables S-4, S-5) or 5000 nM (Table 1); read-out: Kd (nM) by SPR (geomean). In short, it runs like this: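 EcPBP3 amine-coupled to CM5 chip (1500-2500 RU); compounds injected at 37 °C in 10 mM HEPES pH 8.0, 200 mM NaCl, 0.05% Tween-20, 2% DMSO, 50 μL min^–1, 150 s contact, 2400 s dissociation. Double-referenced sensorgrams kinetically fitted for Kd; geometric mean of ≥2 biological replicates.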
(In general: In SPR one partner is held on a chip, and binding of the other changes the refractive index at the surface.)

Data set [3] deals with E. coli GKCW102 (EcPore). The note with it: caMHB; biological replicates or their range. The method, then:
To evaluate the engagement of EcPBP3 by a bicyclic peptide in whole cells lacking the outer membrane permeability barrier, peptides were screened in ‘hyperporinated’ E. coli strains in which a constitutively open FhuA pore (FhuAΔC/Δ4L, lacking N-terminal cork domain and external loops) was chromosomally expressed under control of an arabinose-inducible promoter.
Minimal inhibition concentration (MIC) assays were performed in accordance with CLSI standards, using cation-adjusted Mueller Hinton broth (caMHB; Sigma Aldrich) unless otherwise specified. Induction of pore expression in hyperporinated strains E. coli GKCW101 and GKCW102 was performed by addition of 0.1% (w/v) L-arabinose to cultures at OD600 ~ 0.3, with caMHB as the culture medium.

Data set [4] is described as follows: Mouse blood stability. Conditions: CD-1, mouse, whole blood (EDTA as anticoagulant), 37 °C, SAR peptides, read-out: Blood stability (t1/2) (converted). Format: in vitro ADME, CD-1 mice. The method, then:
Stability assays were performed using freshly collected matrices from CD-1 mice, with anticoagulant as stated per dataset. Compound stocks in DMSO were tested at 5 μM final concentration (0.5% (v/v) DMSO). Compounds were incubated in blood or plasma at 37 °C for 24 h, with sampling at 0, 1, 2, 4, 6 and 24 h. Samples were prepared via protein precipitation using organic solvent containing internal standard, and analyzed by LC-MS/MS. Compound remaining was quantified based on the ratio of analyte to internal standard, and the half-life (t1/2) was calculated from a log linear plot of % remaining versus time.

T1 sequence (P0AD68 60-588): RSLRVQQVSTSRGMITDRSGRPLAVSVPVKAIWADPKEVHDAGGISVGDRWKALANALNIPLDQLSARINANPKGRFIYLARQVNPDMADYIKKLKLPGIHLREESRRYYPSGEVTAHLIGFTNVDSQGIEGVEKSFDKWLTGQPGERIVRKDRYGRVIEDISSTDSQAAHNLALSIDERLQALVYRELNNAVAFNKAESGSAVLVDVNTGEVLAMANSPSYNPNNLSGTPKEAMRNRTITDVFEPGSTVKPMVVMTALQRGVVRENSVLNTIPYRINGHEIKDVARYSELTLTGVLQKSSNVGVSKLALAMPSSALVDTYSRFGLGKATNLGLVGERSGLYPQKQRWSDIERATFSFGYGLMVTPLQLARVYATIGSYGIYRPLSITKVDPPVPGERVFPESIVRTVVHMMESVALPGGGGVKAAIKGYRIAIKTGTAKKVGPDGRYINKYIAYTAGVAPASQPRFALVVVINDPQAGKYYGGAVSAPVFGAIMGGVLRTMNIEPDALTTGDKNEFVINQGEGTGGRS

In the case of `C[C@H](N)C(=O)N[C@H]1CSCCC(=O)N2CN3CN(C2)C(=O)CCSC[C@H](NC(=O)CNC(=O)[C@H](Cc2ccccc2)NC(=O)[C@H]([C@@H](C)O)NC(=O)[C@H](CCCNC(=N)N)NC1=O)C(=O)N[C@@H](Cc1c[nH]c2ccccc12)C(=O)N[C@@H](Cc1c[nH]c2ccccc12)C(=O)N[C@@H](CCC(=O)O)C(=O)NCC(=O)N[C@H](C(=O)N[C@@H](C)C(N)=O)CSCCC3=O` [Peptide 5], in data set [1], the “IC50 (nM) by fluorescence polarisation with Bocillin FL as tracer, Geometric mean (Lower 95% CI of geo. Mean; Upper 95% CI of geo. Mean, n=number of values)” value was “showed binding to EcPBP3” and the IC50 is 1550 nM. Besides, in data set [2], the Kd amounted to 369 nM. In addition, the “MIC E. coli GKCW102 (EcPore)” value in data set [3] is recorded as “limited activity”.
In the case of `CC(C)C[C@@H]1NC(=O)CNC(=O)[C@@H]2CCCN2C(=O)[C@H](Cc2ccc(O)cc2)NC(=O)[C@H](C)NC(=O)[C@H](Cc2ccc(O)cc2)NC(=O)[C@@H]2CCCN2C(=O)[C@@H](NC(=O)[C@H](C)N)CSCCC(=O)N2CN3CN(C2)C(=O)CCSC[C@H](NC1=O)C(=O)N[C@@H](CC(C)C)C(=O)N[C@@H](CCC(=O)O)C(=O)N[C@@H](Cc1ccccc1)C(=O)N[C@@H](CCCCN)C(=O)N[C@@H](CO)C(=O)N[C@H](C(=O)N[C@@H](C)C(N)=O)CSCCC3=O` [Peptide 11] (HELM PEPTIDE1{A.C.P.Y.A.Y.P.G.L.C.L.E.F.K.S.C.A.[am]}|CHEM1{[O=C(CC[*:1])N1CN(C(=O)CC[*:2])CN(C(=O)CC[*:3])C1]}$PEPTIDE1,CHEM1,2:R3-1:R1|PEPTIDE1,CHEM1,10:R3-1:R2|PEPTIDE1,CHEM1,16:R3-1:R3$$$V2.0), in data set [1], the IC50 was greater than 100000 nM.
Same read-out and setting: the value for `CC(C)C[C@@H]1NC(=O)[C@H](C)NC(=O)[C@@H]2CSCCC(=O)N3CN(CN(C3)C(=O)CCSC[C@H](NC(=O)[C@H](C)N)C(=O)N3CCC[C@H]3C(=O)N[C@@H](CCC(=O)O)C(=O)N[C@@H](CCCNC(=N)N)C(=O)N[C@@H](CC(C)C)C(=O)N2)C(=O)CCSC[C@@H](C(=O)N[C@@H](C)C(N)=O)NC(=O)[C@H](CCCNC(=N)N)NC(=O)[C@H](CC(C)C)NC(=O)[C@H]([C@@H](C)O)NC(=O)[C@@H]2CCCN2C(=O)[C@H](CC(C)C)NC(=O)CNC1=O` [Peptide 12] (HELM PEPTIDE1{A.C.P.E.R.L.C.A.L.G.L.P.T.L.R.C.A.[am]}|CHEM1{[O=C(CC[*:1])N1CN(C(=O)CC[*:2])CN(C(=O)CC[*:3])C1]}$PEPTIDE1,CHEM1,2:R3-1:R1|PEPTIDE1,CHEM1,7:R3-1:R2|PEPTIDE1,CHEM1,16:R3-1:R3$$$V2.0) was greater than 100000 nM.
As for `CC(C)C[C@@H]1NC(=O)[C@@H](NC(=O)[C@H](C)N)CSCCC(=O)N2CN3CN(C2)C(=O)CCSC[C@H](NC(=O)[C@H](CC(N)=O)NC(=O)[C@H](CCC(=O)O)NC1=O)C(=O)N[C@@H](Cc1ccc(O)cc1)C(=O)N[C@@H](Cc1ccc(O)cc1)C(=O)N[C@@H](C(C)C)C(=O)N1CCC[C@H]1C(=O)N[C@@H](Cc1ccc(O)cc1)C(=O)N[C@@H](Cc1ccc(O)cc1)C(=O)NCC(=O)N[C@@H](Cc1ccc(O)cc1)C(=O)N[C@@H](C)C(=O)N[C@H](C(=O)N[C@@H](C)C(N)=O)CSCCC3=O` [Peptide 13] (HELM PEPTIDE1{A.C.L.E.N.C.Y.Y.V.P.Y.Y.G.Y.A.C.A.[am]}|CHEM1{[O=C(CC[*:1])N1CN(C(=O)CC[*:2])CN(C(=O)CC[*:3])C1]}$PEPTIDE1,CHEM1,2:R3-1:R1|PEPTIDE1,CHEM1,6:R3-1:R2|PEPTIDE1,CHEM1,16:R3-1:R3$$$V2.0), in data set [1], the “IC50 (nM) by fluorescence polarisation with Bocillin FL as tracer, Geometric mean (Lower 95% CI of geo. Mean; Upper 95% CI of geo. Mean, n=number of values)” value was “showed binding to EcPBP3” and the IC50 came out at 3800 nM.
In the case of `CC[C@H](C)[C@@H]1NC(=O)[C@@H](NC(=O)[C@H](C)N)CSCCC(=O)N2CN3CN(C2)C(=O)CCSC[C@H](NC(=O)[C@H](CCCNC(=N)N)NC(=O)[C@H](CCC(=O)O)NC(=O)[C@H](CCCNC(=N)N)NC1=O)C(=O)N[C@@H](Cc1c[nH]c2ccccc12)C(=O)N[C@@H](CC(=O)O)C(=O)N[C@@H](CC(C)C)C(=O)N[C@@H](CCCCN)C(=O)N[C@@H](CCC(=O)O)C(=O)N[C@@H](CC(N)=O)C(=O)N[C@@H](CC(=O)O)C(=O)N[C@@H](Cc1c[nH]c2ccccc12)C(=O)N[C@H](C(=O)N[C@@H](C)C(N)=O)CSCCC3=O` [Peptide 14] (HELM PEPTIDE1{A.C.I.R.E.R.C.W.D.L.K.E.N.D.W.C.A.[am]}|CHEM1{[O=C(CC[*:1])N1CN(C(=O)CC[*:2])CN(C(=O)CC[*:3])C1]}$PEPTIDE1,CHEM1,2:R3-1:R1|PEPTIDE1,CHEM1,7:R3-1:R2|PEPTIDE1,CHEM1,16:R3-1:R3$$$V2.0), the IC50 in data set [1] was greater than 100000 nM.
On to `CC(C)C[C@@H]1NC(=O)[C@H](C(C)C)NC(=O)[C@H](C(C)C)NC(=O)[C@@H]2CCCN2C(=O)[C@H](CCCNC(=N)N)NC(=O)[C@H](C)NC(=O)[C@@H](NC(=O)[C@H](C)N)CSCCC(=O)N2CN3CN(C2)C(=O)CCSC[C@H](NC1=O)C(=O)N[C@@H](Cc1ccc(O)cc1)C(=O)N[C@@H](Cc1c[nH]c2ccccc12)C(=O)N1CCC[C@H]1C(=O)N[C@@H](CCC(=O)O)C(=O)N[C@@H](CC(=O)O)C(=O)N[C@H](C(=O)N[C@@H](C)C(N)=O)CSCCC3=O` [Peptide 15] (HELM PEPTIDE1{A.C.A.R.P.V.V.L.C.Y.W.P.E.D.C.A.[am]}|CHEM1{[O=C(CC[*:1])N1CN(C(=O)CC[*:2])CN(C(=O)CC[*:3])C1]}$PEPTIDE1,CHEM1,2:R3-1:R1|PEPTIDE1,CHEM1,9:R3-1:R2|PEPTIDE1,CHEM1,15:R3-1:R3$$$V2.0), for which the IC50 in data set [1] was greater than 100000 nM.
On to `C[C@H](N)C(=O)N[C@H]1CSCCC(=O)N2CN3CN(C2)C(=O)CCSC[C@H](NC(=O)[C@H](CCCCN)NC(=O)[C@@H]2CCCN2C(=O)[C@H](Cc2ccccc2)NC(=O)[C@H](CO)NC1=O)C(=O)N1CCC[C@H]1C(=O)N[C@@H](Cc1c[nH]c2ccccc12)C(=O)N[C@H](C)C(=O)N[C@@H](CCC(=O)O)C(=O)NCC(=O)N[C@H](C(=O)N[C@@H](C)C(N)=O)CSCCC3=O` [Peptide 69] (HELM PEPTIDE1{A.C.S.F.P.K.C.P.W.[dA].E.G.C.A.[am]}|CHEM1{[O=C(CC[*:1])N1CN(C(=O)CC[*:2])CN(C(=O)CC[*:3])C1]}$PEPTIDE1,CHEM1,2:R3-1:R1|PEPTIDE1,CHEM1,7:R3-1:R2|PEPTIDE1,CHEM1,13:R3-1:R3$$$V2.0), for which the Kd in data set [2] is greater than 2500 nM. Further, the “MIC E. coli GKCW102 (EcPore)” value in data set [3] was greater than 16 µg/mL.
Consider `CC(C)[C@@H]1NC(=O)[C@H](Cc2c[nH]c3ccccc23)NC(=O)[C@@H]2CCCN2C(=O)[C@@H]2CSCCC(=O)N3CN(CN(C3)C(=O)CCSC[C@H](N)C(=O)N[C@@H](CO)C(=O)N[C@@H](Cc3ccccc3)C(=O)N3CCC[C@H]3C(=O)N[C@@H](CCCCNC(=N)N)C(=O)N2)C(=O)CCSC[C@@H](C(=O)N[C@@H](C)C(N)=O)NC(=O)CNC(=O)[C@H](CCC(=O)O)NC1=O` [Peptide 71] (HELM PEPTIDE1{C.S.F.P.[N=C(N)NCCCC[C@H](N[*:1])C(=O)[*:2]].C.P.W.V.E.G.C.A.[am]}|CHEM1{[O=C(CC[*:1])N1CN(C(=O)CC[*:2])CN(C(=O)CC[*:3])C1]}$PEPTIDE1,CHEM1,1:R3-1:R1|PEPTIDE1,CHEM1,6:R3-1:R2|PEPTIDE1,CHEM1,12:R3-1:R3$$$V2.0), for which, in data set [4], the half-life at 5 μM was 5.7 h.

Usually IC50 stands for the concentration needed to halve the response being measured. The term Kd denotes the concentration at which binding is half-saturated.
